Twelve molecules from patent publication US12569464B2, “Protein-protein interaction inducing technology” (Arvinas Operations, Inc., priority 2016, dated 2026) can be followed below.

Each structure is given as a SMILES string.

By IC50 is commonly meant the point on the concentration scale where inhibition reaches its midpoint. The DC50 is the concentration at which degradation of the target reaches its halfway point. Usually Dmax stands for the greatest extent of degradation seen.

One assay deals with T1, Androgen Receptor (Homo sapiens, UniProt P10275).
T1 construct: expressed in transfected cells; host or cells: HEK293
T1 sequence (P10275 1-920): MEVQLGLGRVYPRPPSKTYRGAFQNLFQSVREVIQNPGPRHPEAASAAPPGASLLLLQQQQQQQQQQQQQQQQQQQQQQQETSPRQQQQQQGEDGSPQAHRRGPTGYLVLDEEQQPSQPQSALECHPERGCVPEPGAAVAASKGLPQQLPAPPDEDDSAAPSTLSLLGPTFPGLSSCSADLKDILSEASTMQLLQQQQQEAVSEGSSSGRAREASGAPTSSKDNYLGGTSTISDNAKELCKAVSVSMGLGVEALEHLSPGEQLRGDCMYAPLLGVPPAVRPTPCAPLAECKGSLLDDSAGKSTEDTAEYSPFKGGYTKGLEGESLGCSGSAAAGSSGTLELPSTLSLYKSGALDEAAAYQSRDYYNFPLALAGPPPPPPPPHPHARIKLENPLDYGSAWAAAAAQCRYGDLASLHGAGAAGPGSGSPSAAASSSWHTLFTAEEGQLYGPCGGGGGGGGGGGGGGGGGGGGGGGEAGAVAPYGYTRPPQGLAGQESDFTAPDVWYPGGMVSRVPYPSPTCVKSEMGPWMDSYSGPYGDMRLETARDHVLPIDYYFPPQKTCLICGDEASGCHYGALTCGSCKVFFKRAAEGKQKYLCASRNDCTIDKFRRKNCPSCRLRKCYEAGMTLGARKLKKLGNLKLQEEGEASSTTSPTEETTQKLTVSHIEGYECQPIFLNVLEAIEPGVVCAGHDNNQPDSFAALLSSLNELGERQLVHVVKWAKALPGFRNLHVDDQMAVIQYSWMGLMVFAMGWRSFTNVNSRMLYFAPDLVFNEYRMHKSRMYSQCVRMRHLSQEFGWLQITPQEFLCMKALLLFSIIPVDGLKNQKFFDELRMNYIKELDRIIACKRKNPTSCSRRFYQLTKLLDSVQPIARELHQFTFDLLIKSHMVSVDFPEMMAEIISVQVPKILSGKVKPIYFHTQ
The assay is described as follows: Cell-based ligand (R1881) displacement assay, binary binding to AR. Particulars: read-out: binary binding potency IC50^AR in cells. On the procedure:
It is composed of an AR-binding warhead which is connected to a VHL-binding warhead by a linear connector. […] MD simulation of a ternary system composed of AR ligand-binding domain, a ligand and the complex of VHL with elongin B (EB) and elongin C (EC) in the presence of explicit water was performed. The ligand in the simulation is a close analog of the ligand L above and only differs from the ligand L above by having a methyl substitution at the 4-position of the thiazole group.
(§1) The connector linking the AR-binding warhead and the VHL-binding warhead was systematically probed from 4 to 23 atoms. The AR degradation potency DC50 and the maximum percentage of degradation Dmax of AR in LNCaP cells were measured for each of these compounds. […] The binary binding potency with respect to AR was also measured for some of the compounds by the cell-based ligand (R1881) displacement assay. The ratio α between the AR-binding potency and the degradation potency are calculated when it is possible.
The experimental protocol is based on reference Gustafson et al. (Angew. Chem. Int. Ed., 54: 9659-9662). HEK293 cells were transiently transfected using Fugene 6 to overexpress wildtype Androgen Receptor. During binding assay, transfected cells were grown in DMEM supplemented with 10% charcoal-stripped FBS. Cells were treated for two hours with the indicated competitor compound in the presence of 0.1 nM ^3H-R1881. Cells were washed in PBS, lysed in 200 ul lysis buffer (2% SDS, 10% Glycerol, 10 mM Tris-HCl [pH 6.8]), and cleared with the addition of 300 ul of 10 mM Tris-HCl (pH 8.0). 300 ul of these lysates were added to 3 mL of Cytoscint (MP Biomedicals), and scintillation counting was performed on a Beckman LS 6000SC instrument. Counts (cpm) were normalized to total protein amount in each sample, as determined via the Pierce BCA Protein Assay Kit (Thermo Scientific) per the manufacturer's instructions.

The next assay has as its target T2, AR (Homo sapiens, UniProt P10275+P40337, T878A).
T2 construct: degradation Dmax of AR in LNCaP cells; endogenous in cells; host or cells: LNCaP
The assay is described as follows: AR degradation in LNCaP cells (androgen receptor ELISA). It is filed as cell-based. Particulars: for DC50 / Dmax / maximum AR degradation Dmax: LNCaP cells; for DC50: read-out: AR degradation potency DC50; for Dmax: read-out: maximum AR degradation Dmax. On the procedure:
as §1
Androgen Receptor ELISA Assay
The protocols used with VCaP cells are described below. The androgen receptor ELISA assay was performed using PathScan AR ELISA (Cell Signaling Catalog #12850) according to the following assay steps: […]
On the technique in general: An ELISA detects its analyte on a solid surface through an enzyme-linked reagent.

T2 sequence (Q15370 whole entry): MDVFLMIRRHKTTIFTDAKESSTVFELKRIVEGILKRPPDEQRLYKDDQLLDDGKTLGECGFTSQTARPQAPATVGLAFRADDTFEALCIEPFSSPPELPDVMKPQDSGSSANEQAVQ
T2 sequence (P40337 whole entry): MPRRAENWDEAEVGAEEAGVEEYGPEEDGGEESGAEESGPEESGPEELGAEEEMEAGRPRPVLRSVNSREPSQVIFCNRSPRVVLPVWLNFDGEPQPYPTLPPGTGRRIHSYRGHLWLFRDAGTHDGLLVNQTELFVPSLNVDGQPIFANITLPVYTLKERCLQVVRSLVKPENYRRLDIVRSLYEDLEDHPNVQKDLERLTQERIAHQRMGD
T2 sequence (P10275 whole entry T878A): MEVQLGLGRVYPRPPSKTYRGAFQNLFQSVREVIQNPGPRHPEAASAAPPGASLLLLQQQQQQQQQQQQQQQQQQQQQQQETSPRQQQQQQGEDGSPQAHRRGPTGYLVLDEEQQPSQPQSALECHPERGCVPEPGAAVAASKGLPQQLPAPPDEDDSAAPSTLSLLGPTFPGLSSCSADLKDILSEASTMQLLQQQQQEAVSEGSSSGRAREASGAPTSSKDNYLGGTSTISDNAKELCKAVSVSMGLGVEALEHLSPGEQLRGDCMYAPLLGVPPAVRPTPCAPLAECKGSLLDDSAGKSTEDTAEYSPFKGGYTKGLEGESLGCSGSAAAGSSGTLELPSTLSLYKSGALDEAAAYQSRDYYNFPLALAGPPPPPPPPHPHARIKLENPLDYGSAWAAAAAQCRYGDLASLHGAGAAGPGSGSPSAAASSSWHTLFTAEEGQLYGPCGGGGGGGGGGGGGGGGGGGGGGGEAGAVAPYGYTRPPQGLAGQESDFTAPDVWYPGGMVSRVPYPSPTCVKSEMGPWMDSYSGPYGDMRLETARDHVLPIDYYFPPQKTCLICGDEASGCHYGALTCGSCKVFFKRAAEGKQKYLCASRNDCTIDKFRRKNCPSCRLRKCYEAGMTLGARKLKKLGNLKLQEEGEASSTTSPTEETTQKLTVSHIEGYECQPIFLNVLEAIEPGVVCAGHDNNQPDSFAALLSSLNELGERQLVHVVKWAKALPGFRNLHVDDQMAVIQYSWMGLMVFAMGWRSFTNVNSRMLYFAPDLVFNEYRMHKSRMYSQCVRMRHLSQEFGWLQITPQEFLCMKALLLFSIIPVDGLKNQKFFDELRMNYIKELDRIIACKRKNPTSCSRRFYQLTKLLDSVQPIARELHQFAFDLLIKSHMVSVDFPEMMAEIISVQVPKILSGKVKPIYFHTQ
T2 sequence (Q15369 whole entry, further chain): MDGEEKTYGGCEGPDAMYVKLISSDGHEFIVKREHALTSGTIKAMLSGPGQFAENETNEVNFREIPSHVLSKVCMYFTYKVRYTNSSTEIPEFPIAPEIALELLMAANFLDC

Consider `Cc1ncsc1-c1ccc(CNC(=O)[C@@H]2C[C@@H](O)CN2C(=O)[C@@H](NC(=O)CCCOc2ccc(N3C(=S)N(c4ccc(C#N)c(C(F)(F)F)c4)C(=O)C3(C)C)cc2)C(C)(C)C)cc1` [Compound 1], for which the concentration for half-maximal inhibition (IC50) on Androgen Receptor worked out at 970 nM. For the same molecule, on AR, the DC50 is > 3000 nM and the Dmax is 35%.

Regarding `Cc1ncsc1-c1ccc(CNC(=O)[C@@H]2C[C@@H](O)CN2C(=O)[C@@H](NC(=O)COCCOc2ccc(N3C(=S)N(c4ccc(C#N)c(C(F)(F)F)c4)C(=O)C3(C)C)cc2)C(C)(C)C)cc1` [Compound 2], at Androgen Receptor, the IC50 was found to be 2140 nM. At AR, the “ratio α between AR-binding potency IC50 and degradation potency DC50” value is <1; the “maximum AR degradation Dmax” value is reported as 51%; the DC50 amounted to 1700 nM.

As to `Cc1ncsc1-c1ccc(CNC(=O)[C@@H]2C[C@@H](O)CN2C(=O)[C@@H](NC(=O)COCCOCCCOc2ccc(N3C(=S)N(c4ccc(C#N)c(C(F)(F)F)c4)C(=O)C3(C)C)cc2)C(C)(C)C)cc1` [Compound 6], at AR, the “maximum AR degradation Dmax” value was 54% and the half-maximal degradation concentration (DC50) turned out to be 72 nM.

With `Cc1ncsc1-c1ccc(CNC(=O)[C@@H]2C[C@@H](O)CN2C(=O)[C@@H](NC(=O)COCCCOCCCOc2ccc(N3C(=S)N(c4ccc(C#N)c(C(F)(F)F)c4)C(=O)C3(C)C)cc2)C(C)(C)C)cc1` [Compound 7], at AR, the “maximum AR degradation Dmax” value is 56% and the DC50 was 390 nM.

As to `Cc1ncsc1-c1ccc(CNC(=O)[C@@H]2C[C@@H](O)CN2C(=O)[C@@H](NC(=O)COCCCOCCCCCOc2ccc(N3C(=S)N(c4ccc(C#N)c(C(F)(F)F)c4)C(=O)C3(C)C)cc2)C(C)(C)C)cc1` [Compound 9], the half-maximal inhibitory concentration (IC50) on Androgen Receptor worked out at 810 nM. For the same molecule, at AR, the “ratio α between AR-binding potency IC50 and degradation potency DC50” value was determined as 23.5; the “maximum AR degradation Dmax” value came out at 83%; the 50% degradation concentration (DC50) was 34.4 nM.

In the case of `Cc1ncsc1-c1ccc(CNC(=O)[C@@H]2C[C@@H](O)CN2C(=O)[C@@H](NC(=O)COCCCCOCCCCCOc2ccc(N3C(=S)N(c4ccc(C#N)c(C(F)(F)F)c4)C(=O)C3(C)C)cc2)C(C)(C)C)cc1` [Compound 10], at AR, the “maximum AR degradation Dmax” value came to 77% and the DC50 came out at 60 nM.

Consider `Cc1ncsc1-c1ccc(CNC(=O)[C@@H]2C[C@@H](O)CN2C(=O)[C@@H](NC(=O)COCCOCCOCCCCCOc2ccc(N3C(=S)N(c4ccc(C#N)c(C(F)(F)F)c4)C(=O)C3(C)C)cc2)C(C)(C)C)cc1` [Compound 11], for which the 50% inhibitory concentration (IC50) at Androgen Receptor came out at 1150 nM. On AR, the “ratio α between AR-binding potency IC50 and degradation potency DC50” value came to 105; the “maximum AR degradation Dmax” value is on record as 60%; the DC50 was 11 nM.

`Cc1ncsc1-c1ccc(CNC(=O)[C@@H]2C[C@@H](O)CN2C(=O)[C@@H](NC(=O)COCCOCCOCCCOCCOCCOc2ccc(N3C(=S)N(c4ccc(C#N)c(C(F)(F)F)c4)C(=O)C3(C)C)cc2)C(C)(C)C)cc1` [Compound 14]: on Androgen Receptor, the IC50 turned out to be 4950 nM. At AR, the half-maximal degradation concentration (DC50) is 220 nM and the Dmax was 52%.

Regarding `Cc1ncsc1-c1ccc(CNC(=O)[C@@H]2C[C@@H](O)CN2C(=O)[C@@H](NC(=O)COCCOCCOCCCCOCCOCCOc2ccc(N3C(=S)N(c4ccc(C#N)c(C(F)(F)F)c4)C(=O)C3(C)C)cc2)C(C)(C)C)cc1` [Compound 15], the IC50 at Androgen Receptor stood at 3480 nM. Besides, at AR, the 50% degradation concentration (DC50) amounted to 29 nM and the Dmax came to 58%.

`Cc1ncsc1-c1ccc(CNC(=O)[C@@H]2C[C@@H](O)CN2C(=O)[C@@H](NC(=O)COCCOCCOCCOCCOCCOCCOc2ccc(N3C(=S)N(c4ccc(C#N)c(C(F)(F)F)c4)C(=O)C3(C)C)cc2)C(C)(C)C)cc1` [Compound 16]: the 50% inhibitory concentration (IC50) on Androgen Receptor came to 1750 nM. Further, on AR, the half-maximal degradation concentration (DC50) stood at 3000 nM and the Dmax was 90%.

As to `Cc1ncsc1-c1ccc(CNC(=O)[C@@H]2C[C@@H](O)CN2C(=O)[C@@H](NC(=O)COCCOCCCCOCCCCOCCOCCOc2ccc(N3C(=S)N(c4ccc(C#N)c(C(F)(F)F)c4)C(=O)C3(C)C)cc2)C(C)(C)C)cc1` [Compound 17], on Androgen Receptor, the 50% inhibitory concentration (IC50) was 1420 nM. At AR, the DC50 was > 3000 nM and the Dmax is 43%.

For `Cc1ncsc1-c1ccc(CNC(=O)[C@@H]2C[C@@H](O)CN2C(=O)[C@@H](NC(=O)COCCOCCCCCOCCCCCOCCOCCOc2ccc(N3C(=S)N(c4ccc(C#N)c(C(F)(F)F)c4)C(=O)C3(C)C)cc2)C(C)(C)C)cc1` [Compound 18], the 50% inhibitory concentration (IC50) at Androgen Receptor worked out at 960 nM. Further, at AR, the “ratio α between AR-binding potency IC50 and degradation potency DC50” value is reported as <1; the “maximum AR degradation Dmax” value was found to be 47%; the DC50 is > 3000 nM.
